From publication PMC6394990, “Detailed characterization of the solution kinetics and thermodynamics of biotin, biocytin and HABA binding to avidin and streptavidin” (PLoS ONE, 2019)
Where “and” joins values, the source holds several entries; their conditions need not be identical. Equal values may be shown once.

What was measured:
de-glycosylated AV = molecular target: T1, de-glycosylated AV (Gallus gallus, UniProt P02701); test: Stopped-flow association kinetics with endoglycosidase H de-glycosylated avidin; type: binding
T1 construct: purchased Calbiochem (La Jolla, CA)
Protocol: These reactions were carried out in a buffered solution of 10 mM Tris-HCl, 100 mM KCl, 2.5 mM MgCl2 and 1 mM CaCl2 at pH 8 and only AV-BcO reactions included pH 9 and 10. The concentrations, after mixing, were of 20 nM of dye-labeled B7 probe and 260 nM, 520 nM or 1040 nM of AV; and 200 nM, 300 nM, 400 nM or 800 nM of SAV at temperatures of 10, 15, 20 and 25°C. The deglycosylation of AV (for comparative association reactions) was carried out using the provided standard protocol with endoglycosidase H [47], both with and without incubation of a denaturant solution (2% SDS and 1M 2-mercaptoethanol).
The reactions were collected with the SF instrument, described previously. The fluorescence signal was collected through a 520 nm interference filter (Oriel Corp., Stratford, CT) with a detector time constant and SF dead time of 1 μs and 1 ms, respectively. The excitation light was provided by the Coherent Ar^+ ion laser (described above) at 488 nm with […] of incident power on the reaction cuvette. The laser source was followed by the photo-elastic modulator described above with the axis oriented 45^o with respect to the electric vector of the incident light and with the half-wave modulation (50 kHz) set for 488 nm excitation. The demodulation circuitry following the photomultiplier provided a DC(t) and a rectified AC(t) which were converted to digital data by a high-speed digitizer (PCI-5122) from National Instruments (Austin, TX) with 14-bit resolution and 100 MHz bandwidth, through channels 0 and 1. The data acquisition was controlled by LabVIEW (Vr 8) software at a collection rate of 6120 data points/second and stored in spreadsheets. The AC(t) and DC(t) data were baseline corrected before obtaining the signal ratio (Eq 4) as a function of time (ρt).

[1] = Steady-state anisotropy (rss), unbound probe; type: physicochemical
Protocol: (§1) The lifetimes (τ), steady state anisotropies (rss), time-resolved anisotropies (rt) and quantum yields (QY) of the complexes (at 20 ± 0.1°C and pH 8) were collected with a dye-labeled B7 probe concentration of 20–40 nM and 1040–2080 nM of either protein (AV or SAV) to ensure that only one binding site in the tetramer was filled with a ligand (AB1 filling model).
The rss measurements were collected using the Giblin-Parkhurst modification of the Wampler-Desa method as described previously. The fluorescence signal was detected in a model A-1010 Alphascan fluorimeter (Photon Technologies, Inc., Birmingham, NJ) equipped with an R928 PMT (Hamamatsu, Bridgewater, NJ). The excitation was provided by an Ar^+ ion laser (Coherent Innova 70–4 Argon, Santa Clara, CA) at 488 nm and 5–10 mW of power incident on the sample. […] The fluorimeter G factor was determined using a film polarizer and analyzer with an excitation at 488 nm provided by a xenon arc lamp (model A1010, Photon Technologies Inc, Princeton, NJ). The dissociation reactions of dye-labeled B7 and protein complexes were monitored by fluorescence changes and were also collected in the fluorimeter described above.

[2] = Quantum yields (QY), unbound probe; type: physicochemical; settings: unbound dye
Protocol: as §1
The QY values were obtained by using a reference fluorophore of known quantum yield and were calculated according to Parker and Rees, where the reference dye was fluorescein in 0.1N sodium hydroxide solution [46]. The emission fluorescence scans were collected from 480 nm to 700 nm with the excitation light set at 460 nm provided by the xenon arc lamp described above. These measurements were made on the AB1 complexes at high protein concentration.

streptavidin (SAV) = molecular target: T2, streptavidin (SAV) (Streptomyces avidinii, UniProt P22629); test: Dissociation (displacement/replacement) of dye-labeled biotin complexes by unlabeled B7; type: binding; settings: for half-time of displacement: SAV-BcO AB1
T2 construct: purchased Sigma Aldrich (St. Louis, MO)
Protocol: Biotin dissociation was determined using labelled biotin (BcO and BFl) displaced by unlabeled biotin using minimally occupied and fully occupied binding sites. In the minimally occupied measurements, SAV is prepared with less than one site on average occupied by labelled biotin (AB1), using 800 nM SAV and 40 nM of BcO or BFl. For saturated SAV-labelled biotin (AB4) complexes, equimolar binding sites and labelled ligand were prepared, 40 nM SAV and 40 nM of BcO or BFl. The AB1 complexes were challenged in displacement experiments with several concentrations of unlabeled B7 (1500 nM, 1750 nM, 2000 nM and 2500 nM) at 20 ± 0.1°C. In AB1, SAV had 760 nM in open sites, therefore the total challenging B7 concentrations were 740 nM, 990 nM, 1240 nM and 1740 nM, respectively. […] The 40 nM AB4 complexes were challenged with unlabeled B7 concentrations of 400 nM (10X) and 1600 nM (40X) at 20 ± 0.1°C. The dissociation reactions of AV complexes were carried out with a preformed complex of 20 nM BFl or BcO and 260 nM AV for a filling model of AB1 and challenged with unlabeled B7 at 2,000 nM.
The rss measurements were collected using the Giblin-Parkhurst modification of the Wampler-Desa method as described previously. The fluorescence signal was detected in a model A-1010 Alphascan fluorimeter (Photon Technologies, Inc., Birmingham, NJ) equipped with an R928 PMT (Hamamatsu, Bridgewater, NJ). The excitation was provided by an Ar^+ ion laser (Coherent Innova 70–4 Argon, Santa Clara, CA) at 488 nm and 5–10 mW of power incident on the sample. A photoelastic modulator (PEM-80; HINDS International, Inc., Portland, OR) was placed between the laser source and the sample compartment with a retardation level of 1.22π, and the PEM stress axis orientated 45° with respect to the E vector of the laser beam. Two signals were acquired with the PEM alternating between “on” and “off” positions for 10 seconds and the data fitted to a least squared straight line to minimize noise. A minimum of six of these independent measurements were averaged to acquire the rss values. The fluorimeter G factor was determined using a film polarizer and analyzer with an excitation at 488 nm provided by a xenon arc lamp (model A1010, Photon Technologies Inc, Princeton, NJ). The dissociation reactions of dye-labeled B7 and protein complexes were monitored by fluorescence changes and were also collected in the fluorimeter described above.
The dissociation reactions were followed by fluorescence changes, F¯(t) , in the fluorimeter and laser setup described above and tuned to 488 nm under discontinuous excitation to prevent photobleaching distortion. The signal was best fitted to the following dissociation model (Eq 10), in which the dye labeled complex dissociates into the labeled B7 probe (BFl or BcO) and the respective protein (AV or SAV).

T2 sequence (P22629 25-183): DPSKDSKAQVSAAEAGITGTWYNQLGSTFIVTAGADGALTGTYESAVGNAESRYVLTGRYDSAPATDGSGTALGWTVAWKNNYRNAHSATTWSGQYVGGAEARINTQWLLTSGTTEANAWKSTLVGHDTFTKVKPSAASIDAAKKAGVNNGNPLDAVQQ
T1 sequence (P02701 25-152): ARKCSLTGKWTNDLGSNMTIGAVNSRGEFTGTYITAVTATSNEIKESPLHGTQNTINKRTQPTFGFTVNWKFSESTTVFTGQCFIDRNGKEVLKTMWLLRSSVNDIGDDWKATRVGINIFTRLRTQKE

NC(CCCCNC(=O)CCCC[C@@H]1SC[C@@H]2NC(=O)N[C@@H]21)C(=O)NCCCCCNC(=O)c1ccc(-c2c3cc(F)c(=O)cc-3oc3cc(O)c(F)cc23)c(C(=O)O)c1 (stereo partly drawn) [BcO, Oregon green 488 Biocytin]
kon (de-glycosylated AV; de-glycosylated AV, 15°C): 3.7e+06 M⁻¹ s⁻¹ | rss, Unbound [1]: 0.023 | QY [2]: 0.91 and 0.91 ± 0.02 | half-time of displacement (streptavidin (SAV); 20°C, challenging B7 740 nM): 56.6 s | half-time of displacement (streptavidin (SAV); 20°C, challenging B7 1240 nM): 33.9 s | half-time of displacement (streptavidin (SAV); 20°C, challenging B7 1740 nM): 24.2 s | release amplitude of the displacement reaction (streptavidin (SAV); SAV-BcO complex challenged with unlabeled B7, 20°C): ~ 79% and 79 ± 1%

O=C(CCCC[C@@H]1SC[C@@H]2NC(=O)N[C@@H]21)NCCNC(=O)c1ccc(-c2c3ccc(=O)cc-3oc3cc(O)ccc23)c(C(=O)O)c1 [BFl, Biotin-4-fluorescein]
ln(k) (de-glycosylated AV; deAV 15C (288.15 K), pH8): 15.5 | k(average) (de-glycosylated AV; deAV 15C (288.15 K), pH8, full value): 5.36E+06 | k(average) (de-glycosylated AV; deAV 15C (288.15 K), pH8, scaled): 5.4 | rss, Unbound [1]: 0.021 | 488, correction, absR/abs [2]: 1 | QY [2]: 0.52 and 0.52 ± 0.02 | QY multiplied by the 488 correction absR/abs [2]: 0.52 | release (displacement) of the bound probe (streptavidin (SAV); SAV-BFl complex, AB1, 30°C, challenging B7 1400 nM): 5%
